Laboratory results as given in patent US12384769B2, “Heteroaryl-substituted aminoalkyl azole compounds as pesticides” (Elanco Animal Health GmbH, priority 2019, dated 2025).

Assays:
Format in all cases: in vivo
Ctenocephalides felis [1] = experiment: Ctenocephalides felis in-vitro contact test, adult cat flea; conditions: 5 μg/cm^2 (=500 g/ha), after 48 hours, read-out: activity (efficacy, fleas dead or moribund)
Experimental: Ctenocephalides felis—in-Vitro Contact Tests Adult Cat Flea
(§1) 9 mg compound is solved in 1 ml acetone and diluted with acetone to the desired concentration. 250 of the test solution is filled in 25 ml glass test tubes and homogeneously distributed on the inner walls by rotation and tilting on a shaking device (2 h at 30 rpm). With a compound concentration of 900 ppm, an inner surface of 44.7 cm^2 and a homogeneous distribution, a dose of 5 μg/cm^2 is achieved.
(§2) After the solvent has evaporated, each test tube is filled with 5-10 adult cat fleas (Ctenocephalides felis), closed with a perforated lid and incubated in a lying position at room temperature and relative humidity. After 48 hours efficacy is determined. The fleas are patted on the ground of the tubes and are incubated on a heating plate at 45-50° C. for at most 5 minutes Immotile or uncoordinated moving fleas, which are not able to escape the heat by climbing upwards, are marked as dead or moribund.
An efficacy of 100% means all fleas are dead or moribund; 0% means no fleas are dead or moribund.

Ctenocephalides felis [2] = experiment: Ctenocephalides felis oral test (CTECFE); conditions: 48 h, 100 ppm in cattle blood, after 2 days
Experimental: Ctenocephalides felis—Oral Test (CTECFE)
(§3) Solvent: dimethyl sulfoxide
To produce a suitable preparation of active compound, 10 mg of active compound are dissolved in 0.5 ml solvent, and the concentrate is diluted with cattle blood to the desired concentration.
Approximately 20 adult unfed cat fleas (Ctenocephalides felis) are placed in flea chambers. The blood chamber, sealed with parafilm on the bottom, are filled with cattle blood supplied with compound solution and placed on the gauze covered top of the flea chamber, so that the fleas are able to suck the blood. The blood chamber is heated to 37° C. whereas the flea chamber is kept at room temperature.
After 2 days mortality in % is determined. 100% means all the fleas have been killed; 0% means none of the fleas have been killed.

Diabrotica balteata = Diabrotica balteata spray test; conditions: 168 h, wheat seeds, after 7 days, read-out: activity (efficacy, seedlings grown); for pest or weed control at 160 µg/disc, 500 g/ha: 500 g/ha (=160 μg/well)
Experimental: Diabrotica balteata—Spray Test
Solvent: 78.0 parts by weight of acetone • • 1.5 parts by weight of dimethylformamide
(§4) Emulsifier: alkylarylpolyglycol ether
(§5) To produce a suitable preparation of active compound, 1 part by weight of active compound is mixed with the stated amount of solvent, and the concentrate is diluted with water, containing an emulsifier concentration of 1000 ppm, to the desired concentration. Further test concentrations are prepared by dilution with emulsifier containing water.
Soaked wheat seeds (Triticum aestivum) are placed in a multiple well plate filled with agar and some water and are incubated for 1 day to germinate (5 seeds per well). The germinated wheat seeds are sprayed with a test solution containing the desired concentration of the active ingredient. Afterwards each unit is infected with 10-20 larvae of the banded cucumber beetle (Diabrotica balteata).
After 7 days efficacy in % is determined. 100% means all the seedlings have grown up like in the untreated, uninfected control; 0% means none of the seedlings have grown.

Spodoptera frugiperda = Spodoptera frugiperda spray test; conditions: in Zea mays, 168 h, read-out: activity (mortality)
Experimental: Spodoptera frugiperda—Spray Test
Solvent: 78.0 parts by weight acetone • 1.5 parts by weight dimethylformamide
as §4
as §5, with “solvents” for “solvent,”, “and” for “and the concentrate”
Maize (Zea mays) leaf sections are sprayed with a preparation of the active ingredient of the desired concentration. Once dry, the leaf sections are infested with fall armyworm larvae (Spodoptera frugiperda).
After 7 days mortality in % is determined. 100% means all caterpillars have been killed and 0% means none of the caterpillars have been killed.

Rhipicephalus sanguineus = Rhipicephalus sanguineus in-vitro contact test, adult brown dog ticks (RHIPSA Contact); conditions: 5 μg/cm^2 (=500 g/ha), after 48 hours, read-out: activity (efficacy, ticks dead or moribund)
Experimental: Rhipicephalus sanguineus—in-Vitro Contact Tests with Adult Brown Dog Ticks (RHIPSA Contact)
as §1, with “250 μl_,” for “250”
as §2, with “brown dog ticks (Rhipicephalus sanguineus),” for “cat fleas (Ctenocephalides felis),”, “ticks” for “fleas”, “ticks,” for “fleas,”
An efficacy of 100% means all ticks are dead or moribund; 0% means no ticks are dead or moribund.

Boophilus microplus = Boophilus microplus injection test (BOOPMI Injection); conditions: Rhipicephalus microplus, 168 h, injection into adult engorged female ticks, egg deposition after 7 days, read-out: activity (efficacy, infertile eggs); for pest or weed control at 0.004 mg: 4 μg/animal; for pest or weed control at 0.02 mg: 20 μg/animal
Experimental: Boophilus microplus—Injection Test (BOOPMI Injection)
as §3
To produce a suitable preparation of active compound, 10 mg of active compound are dissolved in 0.5 mL solvent, and the concentrate is diluted with solvent to the desired concentration.
Five adult engorged female ticks (Boophilus microplus) are injected with 1 μL compound solution into the abdomen. The ticks are transferred into replica plates and incubated in a climate chamber.
After 7 days egg deposition of fertile eggs is monitored. Eggs where fertility is not visible are stored in a climate chamber till hatching after about 42 days. An efficacy of 100% means all eggs are infertile; 0% means all eggs are fertile.

[3] = tested on: Rhipicephalus microplus (strain Parkhurst, resistant against synthetic pyrethroids); experiment: Rhipicephalus microplus in-vitro contact test, larval cattle tick (BOOPMI Contact); conditions: 5 μg/cm^2 (=500 g/ha), after 48 hours, read-out: activity (efficacy, larvae dead or moribund)
Experimental: Rhipicephalus microplus—in-Vitro Contact Tests Larval Cattle Tick (Strain Parkhurst, Resistant Against Synthetic Pyrethroids) (BOOPMI Contact)
as §1, with “250 μL” for “250”
After the solvent has evaporated, each test tube is filled with 20-50 cattle tick larvae (Rhipicephalus microplus), closed with a perforated lid and incubated in a horizontal position at 85% relative humidity and 27° C. in an incubator. After 48 hours efficacy is determined. The larvae are patted on the ground of the tubes and negative geotactic behaviour is recorded.
An efficacy of 100% means all larvae are dead or moribund; 0% means no larvae are dead or moribund.

| Structure (SMILES) | pest or weed control at 5 µg/cm2, 5 µg/cm2 (Ctenocephalides felis [1]) | mortality at 100 ppm (Ctenocephalides felis [2]) | pest or weed control at 100 g/ha (Diabrotica balteata) | mortality at 100 g/ha (Spodoptera frugiperda) | pest or weed control at 5 µg/cm2, 5 µg/cm2 (Rhipicephalus sanguineus) | pest or weed control at 0.004 mg (Boophilus microplus) | pest or weed control at 5 µg/cm2 [3] | pest or weed control at 0.02 mg (Boophilus microplus) | pest or weed control at 160 µg/disc, 500 g/ha (Diabrotica balteata) | mortality at 500 g/ha (Spodoptera frugiperda) |
| --- | --- | --- | --- | --- | --- | --- | --- | --- | --- | --- |
| C[C@H](Nc1nc2cc(OC(F)(F)F)cc(Cl)c2o1)c1ncnn1-c1ncccn1 [Example I-070, 7-Chlor-N-{(1S)-1-[1-(pyrimidin-2-yl)-1H-1,2,4-triazol-5-yl]ethyl}-5-(triflourmethoxy)-1,3-benzoxazol-2-amin] | 90% | 100% | 100% | 100% | – | – | – | – | – | – |
| C[C@H](Nc1nc2cc(C(F)(F)F)c(Cl)cc2o1)c1ncnn1-c1ccc(C(F)(F)F)cn1 [Example I-031] | – | – | – | – | 80% | – | – | – | – | – |
| C[C@H](Nc1nc2cc(C(F)(F)F)c(Cl)cc2o1)c1ncnn1-c1cnc(C#N)cn1 [Example I-057, 5-{5-[(1S)-1-{[6-Chlor-5-(trifluormethyl)-1,3-benzoxazol-2-yl]amino}ethyl]-1H-1,2,4-triazol-1-yl}pyrazin-2-carbonitril] | 100% | 100% | – | 100% | – | 80% | 100% | – | – | – |
| CC(C)c1cc(Cl)c2oc(N[C@@H](C)c3ncnn3-c3ccncn3)nc2c1 [Example I-066, 7-Chlor-5-isopropyl-N-{(1S)-1-[1-(pyrimidin-4-yl)-1H-1,2,4-triazol-5-yl]ethyl}-1,3-benzoxazol-2-amin] | – | – | – | – | 80% | 100% | 90% | 100% | 100% | – |
| C[C@H](Nc1nc2cc(OC(F)(F)F)cc(Cl)c2o1)c1ncnn1-c1ncc(Cl)cn1 [Example I-079, 7-Chlor-N-{(1S)-1-[1-(5-chlorpyrimidin-2-yl)-1H-1,2,4-triazol-5-yl]ethyl}-5-(trifluormethoxy)-1,3-benzoxazol-2-amin] | 100% | 100% | 100% | – | – | 80% | – | – | – | – |
| C[C@H](Nc1nc2cc(C(F)(F)F)c(Br)cn2n1)c1ncnn1-c1ncccn1 [Example I-094, 6-bromo-N-{(1S)-1-[1-(pyrimidin-2-yl)-1H-1,2,4-triazol-5-yl]ethyl}-7-(trifluoromethyl)[1,2,4]triazolo[1,5-a]pyridin-2-amine] | 100% | 100% | 100% | – | – | 100% | – | 100% | – | – |
| Cc1nc([C@H](C)Nc2nc3cc(C(F)(F)F)c(Cl)cc3o2)n(-c2ccc(C#N)cn2)n1 [Example I-019] | 100% | – | 100% | – | – | – | 100% | 100% | 100% | 100% |
| C[C@H](Nc1nc2cc(C(F)(F)F)cc(Cl)c2o1)c1ncnn1-c1ncc(C#N)cn1 [Example I-042, 2-{5-[(1S)-1-{[7-Chlor-5-(trifluormethyl)-1,3-benzoxazol-2-yl]amino}ethyl]-1H-1,2,4-triazol-1-yl}pyrimidin-5-carbonitril] | 90% | – | – | – | – | – | 90% | – | – | – |
| COc1cnc(-n2ncnc2[C@H](C)Nc2nc3cc(C(F)(F)F)c(Cl)cc3o2)nc1 [Example I-058, 6-Chlor-N-{(1S)-1-[1-(5-methoxypyrimidin-2-yl)-1H-1,2,4-triazol-5-yl]ethyl}-5-(trifluormethyl)-1,3-benzoxazol-2-amin] | 100% | – | 100% | 83% | – | – | 100% | – | – | – |
| C[C@H](Nc1nc2cc(C(F)(F)F)cc(Cl)c2o1)c1ncnn1-c1cc(C#N)ccn1 [Example I-052, 2-{5-[(1S)-1-{[7-Chlor-5-(trifluormethyl)-1,3-benzoxazol-2-yl]amino}ethyl]-1H-1,2,4-triazol-1-yl}isonicotinonitril] | 100% | – | – | – | – | 100% | – | 100% | 100% | 100% |
| C[C@H](Nc1nc2cc(OC(F)F)cc(Cl)c2o1)c1ncnn1-c1ncccn1 [Example I-074, 7-Chlor-5-(difluormethoxy)-N-{(1S)-1-[1-(pyrimidin-2-yl)-1H-1,2,4-triazol-5-yl]ethyl}-1,3-benzoxazol-2-amin] | 100% | 100% | – | – | – | 80% | – | – | – | – |
| Cc1nc([C@H](C)Nc2nc3cc(C(F)(F)F)cc(Cl)c3o2)n(-c2ncccn2)n1 [Example I-014] | 80% | 100% | 100% | – | – | 100% | 100% | 100% | 100% | 100% |
| C[C@H](Nc1nc2cc(OC(F)F)cc(Cl)c2o1)c1ncnn1-c1ncc(Br)cn1 [Example I-071, N-{(1S)-1-[1-(5-Brompyrimidin-2-yl)-1H-1,2,4-triazol-5-yl]ethyl}-7-chlor-5-(difluormethoxy)-1,3-benzoxazol-2-amin] | 90% | 100% | 100% | – | – | – | – | – | – | – |
